The values below come from PubChem BioAssay (NCI).

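Five compound concentrations were applied to cells in 96-well plates for 48 hours; endpoints were derived by simple linear interpolation of the resulting dose-response curve. GI50: concentration for 50% inhibition of growth. TGI: total growth inhibition.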

Among the test systems are UACC-62 melanoma; BT-549 breast; SK-MEL-28 melanoma; SN12C renal; RXF 393 renal; CAKI-1 renal; K-562 leukemia; HCC-2998 colon; SF-539 CNS; TK-10 renal; UO-31 renal.
Common to all, as to assay: NCI-60 cell line screen, 48 h

As to `CN(C)c1ccc(/C=C2\N=C(NN)NC2=O)cc1`, the TGI in the experiment with UACC-62 melanoma, with BT-549 breast, in the experiment on SK-MEL-28 melanoma, in the experiment on SN12C renal, in the experiment on RXF 393 renal and with CAKI-1 renal was > 100 µM throughout. Moreover, the TGI in the experiment on K-562 leukemia is > 100 µM; in the experiment with HCC-2998 colon, > 100 µM; in the experiment on SF-539 CNS, 96.6 µM; in the experiment on TK-10 renal, > 100 µM; in the experiment with UO-31 renal, > 100 µM.

Take `Cc1ccc(N=Nc2c(O)ccc3cc(S(=O)(=O)O)ccc23)c(C)c1`: the TGI in the experiment with UACC-62 melanoma, in the experiment with BT-549 breast, in the experiment with SK-MEL-28 melanoma, in the experiment with SN12C renal, in the experiment on RXF 393 renal and in the experiment on CAKI-1 renal was > 100 µM each time. The TGI in the experiment on K-562 leukemia, in the experiment with HCC-2998 colon, in the experiment on SF-539 CNS, in the experiment with TK-10 renal and in the experiment with UO-31 renal was > 100 µM each time.

For `CCOC(=O)c1c(Br)c(-c2ccc(Br)cc2)c(Br)n1C`, the GI50 in the experiment with UACC-62 melanoma is 23.6 µM; in the experiment with K-562 leukemia, 11.3 µM. Besides, the TGI is > 100 µM with UACC-62 melanoma; 79.4 µM with BT-549 breast; 51.8 µM with SK-MEL-28 melanoma; 84 µM in the experiment with SN12C renal; 34.2 µM in the experiment with RXF 393 renal; 75.2 µM in the experiment on CAKI-1 renal. The TGI in the experiment with K-562 leukemia was 35.1 µM; in the experiment on HCC-2998 colon, 42.1 µM; in the experiment with SF-539 CNS it was 73.2 µM; with TK-10 renal, > 100 µM; with UO-31 renal, > 100 µM.

For the molecule `COC(=O)c1ccccc1C#CC#Cc1ccccc1C(=O)OC`, the TGI in the experiment with UACC-62 melanoma, in the experiment with BT-549 breast, with SK-MEL-28 melanoma, in the experiment on SN12C renal, in the experiment on RXF 393 renal and in the experiment with CAKI-1 renal was > 10 µM each time. Further, the TGI in the experiment with K-562 leukemia, in the experiment on HCC-2998 colon, in the experiment with SF-539 CNS, in the experiment on TK-10 renal and with UO-31 renal was > 10 µM each time.

For the molecule `O=C1/C(=C\c2cccc(Oc3ccccc3)c2)S(=O)(=O)C(c2ccccc2)N1c1ccccc1Cl` (centres undefined), the TGI with UACC-62 melanoma is 94.8 µM; in the experiment with BT-549 breast it was > 100 µM; with SK-MEL-28 melanoma it was > 100 µM; in the experiment with SN12C renal, 72 µM; in the experiment on RXF 393 renal, > 100 µM; in the experiment with CAKI-1 renal, > 100 µM. The TGI in the experiment on K-562 leukemia was 64.2 µM; in the experiment with HCC-2998 colon, > 100 µM; with SF-539 CNS, 34.3 µM; in the experiment with TK-10 renal, > 100 µM; in the experiment on UO-31 renal it was > 100 µM.

Take `COc1cc(OC)c2c(O)c3c(cc2c1)CC(C)(C)CC3=O`: the TGI in the experiment on UACC-62 melanoma, in the experiment on BT-549 breast, in the experiment on SK-MEL-28 melanoma, with SN12C renal, in the experiment with RXF 393 renal and in the experiment with CAKI-1 renal was > 100 µM in each case. In addition, the TGI in the experiment on K-562 leukemia, with HCC-2998 colon, in the experiment with SF-539 CNS, in the experiment on TK-10 renal and in the experiment with UO-31 renal was > 100 µM each time.

Turning to `O=C1Sc2ccc(Br)cc2C(=O)Sc2ccccc21`, the TGI in the experiment with UACC-62 melanoma came out at 31.8 µM; in the experiment on BT-549 breast, 28.2 µM; in the experiment with SK-MEL-28 melanoma, 42.7 µM; in the experiment on SN12C renal, 34.8 µM; in the experiment on RXF 393 renal, 12.4 µM; with CAKI-1 renal, 29.4 µM. Further, the TGI with K-562 leukemia is > 59.3 µM; in the experiment with HCC-2998 colon, 29.6 µM; in the experiment on SF-539 CNS, 26.4 µM; with TK-10 renal, 38.3 µM; with UO-31 renal, 27.1 µM.

In the case of `Cc1sc2nc(-c3cc([N+](=O)[O-])c(Cl)cc3Cl)c(/C=N/N=C(N)N)n2c1C`, the TGI is 39.5 µM with UACC-62 melanoma; 12 µM in the experiment with BT-549 breast; 6.58 µM in the experiment on SK-MEL-28 melanoma; 28.5 µM with SN12C renal; 20.6 µM in the experiment on RXF 393 renal; 33.9 µM in the experiment on CAKI-1 renal. Moreover, the TGI worked out at 9.95 µM with K-562 leukemia; 5.39 µM in the experiment with HCC-2998 colon; 88 µM in the experiment with SF-539 CNS; 35.7 µM with TK-10 renal; 26.4 µM with UO-31 renal.

`O=C1C(NCCc2ccc(O)c(O)c2)=CC(=O)c2ncccc21`: the TGI amounted to 22.5 µM in the experiment on UACC-62 melanoma; 19.6 µM in the experiment on BT-549 breast; 28.8 µM in the experiment with SK-MEL-28 melanoma; 34.4 µM in the experiment on SN12C renal; 28.4 µM in the experiment on RXF 393 renal; 21.5 µM in the experiment on CAKI-1 renal. The TGI in the experiment with K-562 leukemia is 20.2 µM; with HCC-2998 colon, 27.8 µM; in the experiment with SF-539 CNS, 30.1 µM; with TK-10 renal, > 71.6 µM; with UO-31 renal it was 24.4 µM.

As for `COc1cccc(-c2ccc3c4c2O[C@H]2c5[nH]c6ccccc6c5C[C@@]5(O)[C@@H](C3)N(CC3CC3)CC[C@]425)c1`, the TGI with UACC-62 melanoma was 3.05 µM; in the experiment on BT-549 breast it was 15.9 µM; in the experiment with SK-MEL-28 melanoma, > 23.1 µM; in the experiment with SN12C renal, 3.13 µM; with RXF 393 renal it was 3.03 µM; in the experiment on CAKI-1 renal, 4.9 µM. In addition, the TGI with K-562 leukemia was determined as 4.98 µM; with HCC-2998 colon it was 2.87 µM; with SF-539 CNS, 3.51 µM; in the experiment on TK-10 renal it was 3.48 µM; in the experiment on UO-31 renal, 3.1 µM.

For the molecule `Clc1cc2c(c(CSC3=NCN(CC4CC4)CN3)c1)OCOC2`, the TGI was 35.3 µM in the experiment on UACC-62 melanoma; 51.5 µM in the experiment with BT-549 breast; 38.3 µM in the experiment on SK-MEL-28 melanoma; > 100 µM in the experiment on SN12C renal; 36.9 µM with RXF 393 renal; > 100 µM in the experiment with CAKI-1 renal. Also, the TGI was > 100 µM in the experiment on K-562 leukemia; 28.4 µM in the experiment with HCC-2998 colon; 43.4 µM with SF-539 CNS; 40.8 µM in the experiment on TK-10 renal; 37.1 µM in the experiment on UO-31 renal.

In the case of `O=C(Nc1nc2c(=O)[nH]cnc2s1)c1ccccc1`, the TGI in the experiment with UACC-62 melanoma, with BT-549 breast, with SK-MEL-28 melanoma, in the experiment with SN12C renal, with RXF 393 renal and in the experiment with CAKI-1 renal was > 100 µM in each case. For the same molecule, the TGI in the experiment on K-562 leukemia, with HCC-2998 colon, in the experiment on SF-539 CNS, in the experiment on TK-10 renal and in the experiment on UO-31 renal was > 100 µM throughout.
